Tests used:
Format in all cases: physicochemical
[1] = Competitive slurry tests (stability tests) in various solvents, solid analysed by PXRD; settings: room temperature; for Form(s) present T0: immediately after stirring was initiated
Method: Competitive slurry tests were performed in various solvents such as acetone, ethanol, ethyl acetate, acetic acid, methyl ethyl ketone and methyl isobutyl ketone.
A saturated solution of lanifibranor form beta (as obtained in example 2) was prepared for each solvent. An equal amount of lanifibranor form alpha and lanifibranor form beta was introduced into a vial (50 mg+50 mg), and 250 μL of the saturated solution prepared beforehand (recovered by filtration through a 0.2 μm H-PTFE filter) were then added. The mixture was stirred at room temperature, samples of the solid were taken immediately after stirring was initiated and 24 hours after, and analyzed by PXRD to identify the solid form(s) present.

[2] = Stability testing in accordance with EMA guidance (CPMP/ICH/2736/99), PXRD and DSC after storage
Method: Lanifibranor form beta, as obtained in example 2, was submitted to stability testing in accordance with EMA guidance (CPMP/ICH/2736/99, last revised in August 2003); the drug substance was thus stored under the following conditions: • 6 months at 30° C./65° RH, • 6 months at 40° C./75% RH, and • 12 months at 25° C./60% RH.
At the end of each storage period, the drug substance was characterized by PXRD and by DSC.

[3] = Thermogravimetry (TGA) analysis; settings: temperature range 25-200° C.
Method: TGA analysis was conducted on a Mettler Toledo TGA/DSC3+ thermogravimetric analyzer. Analyses were performed on a few milligrams of sample, in 100 µL sealed aluminum pans, punctured before analysis, under nitrogen flush at 50 mL/min. A temperature range between 25° C. and 300° C. was scanned at a 10° C./min rate.

[4] = Dynamic vapor sorption (DVS) analysis; settings: range 0% RH-95% RH, 25° C.
Method: DVS analysis was conducted on a SMS DVS Intrinsic system. Analyses were performed on a few milligrams of sample, in open aluminum pans at 25° C. The stability criterion for each step was a weight change lower than 0.002% on a 5 min time frame. The time criterion for each step was 100 min (minimum duration by step: 10 min). Relative humidity was scanned between 0% RH and 95% RH with 10% RH steps (40-0-95-0-95).

[5] = Compression tests, pellet analysed by PXRD; settings: 100 mg, 13 mm die, 10-Ton pressure for 15 minutes
Method: Compression tests were performed on the crystalline forms (alpha, beta) and on the amorphous form of lanifibranor. 100 mg of each sample were introduced between […] into a 13 mm die and subjected to a 10-Ton pressure for 15 minutes. The pellet obtained was then de-compacted and analysed by PXRD in order to monitor changes in the crystal structure of the sample.

[6] = Screening for solid forms of lanifibranor
Description: An amorphous form was further obtained.

O=C(O)CCCc1cc2cc(Cl)ccc2n1S(=O)(=O)c1ccc2ncsc2c1 [lanifibranor form beta, 1-(6-benzothiazolylsulfonyl)-5-chloro-1H-indole-2-butanoic acid]
relative stability of the solid forms ([1]; conclusion from the competitive slurries in all solvents): most stable form at room temperature
solid form stability on storage (PXRD and DSC) ([2]; 6 months at 30° C./65° RH): stable over long-term storage
solid form stability on storage (PXRD and DSC) ([2]; 6 months at 40° C./75% RH): stable over long-term storage
solid form stability on storage (PXRD and DSC) ([2]; 12 months at 25° C./60% RH): stable over long-term storage
weight loss in TGA curve [3]: does not highlight any significant weight loss
maximum uptake (weight variation) in DVS [4]: +0.1%
change in the solid form after compression (PXRD) [5]: no significant change in the solid form
stability of the solid form upon handling/processing [6]: more stable form

O=C(O)CCCc1cc2cc(Cl)ccc2n1S(=O)(=O)c1ccc2ncsc2c1 [amorphous form, 1-(6-benzothiazolylsulfonyl)-5-chloro-1H-indole-2-butanoic acid]
change in the solid form after compression (PXRD) [5]: weak diffraction signals corresponding to form beta were detected after compression
stability of the solid form upon handling/processing [6]: crystallize into form alpha or form beta even at low temperatures

O=C(O)CCCc1cc2cc(Cl)ccc2n1S(=O)(=O)c1ccc2ncsc2c1 [1-(6-benzothiazolylsulfonyl)-5-chloro-1H-indole-2-butanoic acid]
Form(s) present T0 + 24 h ([1]; acetic acid): form beta
Form(s) present T0 ([1]; acetic acid): form alpha + form beta
Form(s) present T0 + 24 h ([1]; acetone): form beta
Form(s) present T0 ([1]; acetone): form alpha + form beta
Form(s) present T0 + 24 h ([1]; ethanol): form beta
Form(s) present T0 ([1]; ethanol): form alpha + form beta
Form(s) present T0 + 24 h ([1]; ethyl acetate): form beta
Form(s) present T0 ([1]; ethyl acetate): form alpha + form beta
Form(s) present T0 + 24 h ([1]; methyl ethyl ketone): form beta
Form(s) present T0 ([1]; methyl ethyl ketone): form alpha + form beta
Form(s) present T0 + 24 h ([1]; methyl isobutyl ketone): form beta
Form(s) present T0 ([1]; methyl isobutyl ketone): form alpha + form beta

O=C(O)CCCc1cc2cc(Cl)ccc2n1S(=O)(=O)c1ccc2ncsc2c1 [lanifibranor form alpha, 1-(6-benzothiazolylsulfonyl)-5-chloro-1H-indole-2-butanoic acid]
change in the solid form after compression (PXRD) [5]: additional signals that could correspond to peak shifts caused by a transformation to form beta
stability of the solid form upon handling/processing [6]: did readily convert to the other form upon handling/processing

From US20250243192A1, “CRYSTALLINE FORM OF LANIFIBRANOR” (INVENTIVA, priority 2022, published 2025)
